Counter-ions that a name gives are not always drawn.
How the values were obtained:
Format in all cases: cell-based, human
[1] = tested on: Huh7 (hepatocellular carcinoma) cell line; experiment: CellTiter-Glo luminescent cell viability assay, Huh7; conditions: Homo sapiens, Huh-7; for EC50: Huh7 cell line, 72 h incubation, CellTiter-Glo, read-out: EC50, growth inhibition of Huh7; for viability at 4 µM: Huh7, compound at 4 μM; for viability at 4 µM / viability at 10 µM: 72 h; for viability at 10 µM: Huh7, compound at 10 μM
Procedure: (§1) All cell lines were maintained in medium containing 1% penicillin-streptomycin (Dutscher, P06-07100) and 10% Fetal Bovine Serum (Hyclone Dutscher, RZK35922) cultured at 37° C. with 5% CO2. HepG2 (hepatocellular carcinoma), cell line was cultured in Dulbecco's modified Eagle's medium low glucose (Gibco, 21885025), Huh7 (hepatocellular carcinoma), HCT-116 (colorectal carcinoma), PANC-1 (prancreatic carcinoma) and A375 (malignant melanoma) cell lines were cultured in Dulbecco's modified Eagle's medium (Dutscher, L0103). MOLM-14 (acute myeloid leukemia) cell line was maintained in MEM alpha medium (Gibco, 22561-021). 786-0 (renal adenocarcinoma) cell lines were maintained in RPMI 1640 medium (Dutscher, L0498).
(§2) Cell viability was measured using the CellTiter-Glo® luminescent cell viability assay as described by the manufacturer (Promega, Ref G7571) using an Infinite F200Pro luminometer (Tecan). Briefly, for adherent cells, cells were plated onto 96-well plates (white with clear bottom) in 90 μL of media per well and were allowed to grow overnight before the assay. For cells growing in suspension, cells were plated onto 96-well plates 1 h before the assay.
(§3) Compounds were resuspended in H2O or DMSO and added at different concentrations to each well, and cell cultures were incubated for 72 h. Each diluent (H2O or DMSO) were used as a control, and all compounds were tested in a constant percentage of H2O or DMSO. On the day of the reading, plates are equilibrated 30 min at room temperature before the addition of 100 μL of CellTiter-Glo® and luminescence was measured using an Infinite F200Pro (Tecan). % cell viability were expressed as a percentage of the signal obtained for cell cultures treated with diluent. EC50 values were determined as the dose of compound required to reduce luminescent values to 50% of the signal obtained for cell cultures treated with diluent. The experimental data were analyzed using a computer program, Graphpad Prism v5 (GraphPad Software, Inc. La Jolla, Calif.). All points were at least done in duplicate.

[2] = tested on: HepG2 (hepatocellular carcinoma) cell line; experiment: CellTiter-Glo luminescent cell viability assay, HepG2; conditions: Homo sapiens; for EC50: HepG2 cell line, 72 h incubation, CellTiter-Glo, read-out: EC50, growth inhibition of HepG2; for viability at 4 µM / viability at 10 µM: HepG2, HepG, 72 h; for viability at 4 µM: compound at 4 μM; for viability at 10 µM: compound at 10 μM
Procedure: as §1, §2, §3

[3] = tested on: HCT-116 (colorectal carcinoma) cell line; experiment: CellTiter-Glo luminescent cell viability assay, HCT-116; conditions: Homo sapiens; for EC50: HCT-116 cell line, 72 h incubation, CellTiter-Glo, read-out: EC50, growth inhibition of HCT-116; for viability at 4 µM: HCT-116, compound at 4 μM; for viability at 4 µM / viability at 10 µM: 72 h; for viability at 10 µM: HCT-116, compound at 10 μM
Procedure: as §1, §2, §3

[4] = tested on: 786-O (renal adenocarcinoma) cell line; experiment: CellTiter-Glo luminescent cell viability assay, 786-O; conditions: Homo sapiens, 786-0; for EC50: 786-O cell line, 72 h incubation, CellTiter-Glo, read-out: EC50, growth inhibition of 786-O; for viability at 4 µM / viability at 10 µM: 786-O, 72 h; for viability at 4 µM: compound at 4 μM; for viability at 10 µM: compound at 10 μM
Procedure: as §1, §2, §3

[5] = tested on: MOLM-14 (acute myeloid leukemia) cell line; experiment: CellTiter-Glo luminescent cell viability assay, MOLM-14; conditions: Homo sapiens; for EC50: MOLM-14 cell line, 72 h incubation, CellTiter-Glo, read-out: EC50, growth inhibition of MOLM-14; for viability at 4 µM: MOLM-14, compound at 4 μM; for viability at 4 µM / viability at 10 µM: 72 h; for viability at 10 µM: MOLM-14, compound at 10 μM
Procedure: as §1, §2, §3

[6] = tested on: A375 (malignant melanoma) cell line; experiment: CellTiter-Glo luminescent cell viability assay, A375; conditions: Homo sapiens, A-375; for EC50: A375 cell line, 72 h incubation, CellTiter-Glo, read-out: EC50, growth inhibition of A375; for viability at 4 µM: A375, compound at 4 μM; for viability at 4 µM / viability at 10 µM: 72 h; for viability at 10 µM: A375, compound at 10 μM
Procedure: as §1, §2, §3

SMILES	EC50 [1]	EC50 [2]	EC50 [3]	EC50 [4]	EC50 [5]	EC50 [6]	viability at 4 µM [1]	viability at 10 µM [1]	viability at 4 µM [2]	viability at 10 µM [2]	viability at 4 µM [3]	viability at 10 µM [3]	viability at 4 µM [4]	viability at 10 µM [4]	viability at 4 µM [5]	viability at 10 µM [5]	viability at 4 µM [6]	viability at 10 µM [6]
Clc1ccc(CNc2cc(N3CC(N4CCCC4)C3)c3ccccc3n2)cc1 [Compound 116, 2-(4-chlorobenzylamino)-4-[3-(pyrrolidin-1-yl)azetidin-1-yl]quinoline hydrochloride]	0.5 to 5 µM	0.5 to 5 µM	0.5 to 5 µM	0.5 to 5 µM	0.5 to 5 µM	0.5 to 5 µM												
Clc1ccc(CNc2cc(N3CC(N4CCOCC4)C3)c3ccccc3n2)cc1 [Compound 118, 2-(4-chlorobenzylamino)-4-[3-(morpholin-4-yl)azetidin-1-yl]quinoline hydrochloride]	5 to 10 µM	5 to 10 µM	5 to 10 µM	0.5 to 5 µM	5 to 10 µM	5 to 10 µM												
N#Cc1c(NCc2ccc(Cl)cc2)nc2ccccc2c1N1CCC(N2CCOCC2)CC1 [Compound 202CN, 2-(4-chlorobenzylamino)-3-cyano-4-[4-(morpholino)piperidin-1-yl]quinoline]							83.6%	56.1%	80.2%	51.1%	65.8%	33.5%	66.3%	51.9%	112%	64.2%	96.9%	79.2%
CN(Cc1ccc(Cl)cc1)c1cc(N2CCC(NC(C)(C)C)CC2)c2ccccc2n1 [Compound 212, 2-(N-4-chlorobenzyl-N-methylamino)-4-[4-(tert-butylamino)-piperidin-1-yl]-quinoline, Hydrochloride Salt]	5 to 10 µM	0.5 to 5 µM	0.5 to 5 µM	5 to 10 µM	5 to 10 µM	0.5 to 5 µM												
CCN(Cc1ccc(Cl)cc1)c1cc(N2CCC(NC(C)(C)C)CC2)c2ccccc2n1 [Compound 214, 2-(N-4-chlorobenzyl-N-ethylamino)-4-[4-(tert-butylamino)-piperidin-1-yl]-quinoline hydrochloride]							43%	0.4%	0.3%	0.4%	0.2%	0.3%	6.5%	0.4%	26.8%	16.4%	0.4%	0.4%
CC(C)N(Cc1ccc(Cl)cc1)c1cc(N2CCC(NC(C)(C)C)CC2)c2ccccc2n1 [Compound 216, 2-(N-4-chlorobenzyl-N-isopropylamino)-4-[4-(tert-butylamino)-piperidin-1-yl]-quinoline hydrochloride]							74.1%	0.5%	30.4%	0.4%	15.5%	0.3%	78.4%	0.5%	86.7%	0.5%	78.1%	0.4%
CC(C)CN(Cc1ccc(Cl)cc1)c1cc(N2CCC(NC(C)(C)C)CC2)c2ccccc2n1 [Compound 220, 2-(N-4-chlorobenzyl-N-isobutylamino)-4-[4-(tert-butylamino)-piperidin-1-yl]-quinoline]							81.5%	0.3%	79.6%	31%	60.9%	0.3%	74.6%	0.4%	78.9%	52.6%	76.3%	0.3%
CC(C)(C)NC1CCN(c2c(F)c(NCc3ccc(Cl)cc3)nc3ccccc23)CC1 [Compound 348, 2-(4-chlorobenzylamino)-3-fluoro-4-[4-(tert-butylamino)piperidin-1-yl]quinoline Hydrochloride Salt]	5 to 10 µM	0.5 to 5 µM	0.5 to 5 µM	0.5 to 5 µM	0.5 to 5 µM	0.5 to 5 µM												
Cc1c(NCc2ccc(Cl)cc2)nc2ccccc2c1N1CCC(NC(C)(C)C)CC1 [Compound 350, 2-(4-chlorobenzylamino)-3-methyl-4-[4-(tert-butylamino)piperidin-1-yl]quinoline]	5 to 10 µM	0.5 to 5 µM	0.5 to 5 µM	0.5 to 5 µM	5 to 10 µM	0.5 to 5 µM												
CC(C)(C)NC1CCN(c2c(C#N)c(NCc3ccc(Cl)cc3)nc3ccccc23)CC1 [Compound 352CN, 2-(4-chlorobenzylamino)-3-cyano-4-[4-(tert-butylamino)piperidin-1-yl]quinoline]							73.2%	0.6%	71.2%	0.6%	43.9%	0.5%	52.4%	0.5%	76.9%	0.6%	29.1%	0.5%
COC(=O)c1c(NCc2ccc(Cl)cc2)nc2ccccc2c1N1CCC(NC(C)(C)C)CC1 [Compound 354, methyl 4-(4-(tert-butylamino)piperidin-1-yl)-2-(4-chlorobenzylamino) quinoline-3-carboxylate]	0.5 to 5 µM	5 to 10 µM	0.5 to 5 µM	0.5 to 5 µM	0.5 to 5 µM	0.5 to 5 µM												
Cc1cc(CNc2nc3ccccc3c(N3CCC(NC(C)(C)C)CC3)c2C#N)ccc1Nc1nccc(-c2cccnc2)n1 [Compound 498CN, 2-[4-(4-(pyridin-3-yl)pyrimidin-2-ylamino)-3-methylbenzylamino]-3-cyano-4-(4-tert-butylaminopiperidin-1-yl)quinoline]							58.5%	0.2%	0.2%	0.1%	0.2%	0.1%	0.2%	0.1%	0.3%	0.2%	0.2%	0.1%
Cc1ccnc(Nc2ccc(Nc3nc4ccccc4c(N4CCC(NC(C)(C)C)CC4)c3C#N)cc2C)n1 [Compound 500CN, 2-[4-(4-methyl-2-pyrimidinamino)-3-methyl-phenylamino]-3-cyano-4-(4-tert-butylaminopiperidin-1-yl)-quinoline]	5 to 10 µM	5 to 10 µM	0.5 to 5 µM	5 to 10 µM	5 to 10 µM	5 to 10 µM												
Cc1cc(F)cc2c(N3CCC(NC(C)(C)C)CC3)cc(NCc3ccc(Cl)cc3)nc12 [Compound 580, 2-(4-chlorobenzylamino)-4-[4-(tert-butylamino)piperidin-1-yl]-6-fluoro-8-methylquinoline]		0.5 to 5 µM	0.5 to 5 µM	0.5 to 5 µM	0.5 to 5 µM	0.5 to 5 µM												
O=C(C1CCN(c2cc(NCc3ccc(Cl)cc3)nc3ccccc23)CC1)N1CCCC1 [Compound 1648, 2-(4-chlorobenzylamino)-4-[4-(pyrrolidine-1-carbonyl)piperidin-1-yl]quinoline, hydrochloride]	0.5 to 5 µM																	
OC1CCN(c2cc(NCc3ccc(Cl)cc3)nc3ccccc23)CC1 [Compound 2916, 2-(4-chlorobenzylamino)-4-(4-hydroxypiperidin-1-yl)quinoline, hydrochloride]	0.5 to 5 µM	0.5 to 5 µM	5 to 10 µM	5 to 10 µM		5 to 10 µM												
